Laboratory results from the NIST ThermoML archive (doi:10.1016/j.fluid.2010.01.027).

Details: for mass density: Vibrating tube method

FC(F)(F)C(F)(F)C(F)(F)C(F)(F)C(F)(F)C(F)(F)C(F)(F)C(F)(F)F [octadecafluorooctane]
101.33 kPa, Liquid
Details | mass density [kg/m3]
278.15 K | 1810
288.15 K | 1786.7
298.15 K | 1760.6
308.15 K | 1735
318.15 K | 1708.6
328.15 K | 1681.6
338.15 K | 1656.4

101.33 kPa, Liquid, sound analyzer
Details | speed of sound [m/s]
278.15 K | 640.32
288.15 K | 610.05
298.15 K | 581.94
308.15 K | 552.33
318.15 K | 524.1
328.15 K | 508.43
338.15 K | 479.24

FC(F)(F)C(F)(F)C(F)(F)C(F)(F)C(F)(F)C(F)(F)C(F)(F)F [hexadecafluoroheptane]
101.33 kPa, Liquid
Details | mass density [kg/m3]
278.15 K | 1769.3
288.15 K | 1751
298.15 K | 1728.4
308.15 K | 1700.8
318.15 K | 1672.7
328.15 K | 1641.9
333.15 K | 1629.4

101.33 kPa, Liquid, sound analyzer
Details | speed of sound [m/s]
278.15 K | 608.3
288.15 K | 578.42
298.15 K | 548.73
308.15 K | 517.47
318.15 K | 500.56
328.15 K | 470.6
333.15 K | 457.24

FC(F)(F)C(F)(F)C(F)(F)C(F)(F)F [decafluorobutane]
speed of sound [m/s], Gas, sonar gas analyzer
Details | 10 kPa | 20 kPa | 30 kPa | 50 kPa | 70 kPa | 100 kPa | 150 kPa | 200 kPa | 250 kPa | 300 kPa
248.7 K | 95.1 | 94.56 | 93.98 | – | – | – | – | – | – | –
257.7 K | 96.57 | 96.22 | 95.7 | 94.78 | – | – | – | – | – | –
271.3 K | 99.26 | 98.71 | 98.33 | 97.39 | 96.39 | 94.79 | – | – | – | –
281.5 K | 101.05 | 100.64 | 100.23 | 99.38 | 98.4 | 97.04 | 95.08 | – | – | –
293.1 K | 103.02 | 102.7 | 102.37 | 101.71 | 100.86 | 99.66 | 97.68 | 95.63 | – | –
303.1 K | 104.78 | 104.57 | 104.25 | 103.35 | 103.06 | 103.05 | 99.91 | 98.41 | 96.5 | 94.89

FC(F)(F)C(F)(F)C(F)(F)F [octafluoropropane]
speed of sound [m/s], Gas, sonar gas analyzer
Details | 248.2 K | 259.8 K | 270.2 K | 272.6 K | 283.2 K | 296.1 K | 303.9 K
10 kPa | 107.9 | – | 112.31 | – | – | – | 119.13
20 kPa | 107.6 | 110 | 111.99 | – | 114.63 | – | 118.98
30 kPa | 107.25 | 109.59 | 111.77 | – | 114.12 | – | 118.79
50 kPa | 106.56 | 108.88 | 111.27 | – | 113.84 | 116.81 | 118.42
70 kPa | 105.77 | 108.23 | 110.9 | – | 113.1 | 116.31 | 118.04
100 kPa | 104.62 | 107.27 | – | 110.29 | 112.46 | 115.55 | 117.43
150 kPa | 102.76 | 105.51 | – | 108.59 | 111.28 | 114.42 | 116.26
200 kPa | – | 103.72 | – | 106.9 | 109.88 | 113.23 | 115.36
250 kPa | – | 101.83 | – | 105.22 | 108.56 | 111.94 | 114.31
300 kPa | – | – | – | 103.59 | 107.1 | 110.7 | 113.14
350 kPa | – | – | – | 101.9 | 105.61 | 109.43 | 112
400 kPa | – | – | – | 100.27 | 103.99 | 108.12 | 110.63

FC(F)(F)C(F)(F)C(F)(F)C(F)(F)C(F)(F)C(F)(F)F [perfluorohexane]
101.33 kPa, Liquid
Details | mass density [kg/m3]
278.15 K | 1739.8
288.15 K | 1712.7
298.15 K | 1682.8
308.15 K | 1651.9

101.33 kPa, Liquid, sound analyzer
Details | speed of sound [m/s]
278.15 K | 571.89
288.15 K | 540.31
298.15 K | 510.7
